Results as given in patent US7569578B2, “Heterocyclic anti-migraine agents” (Bristol-Meyers Squibb Company, priority 2003, dated 2009).

Molecular target: T1, Human CGRP1 Receptor (Homo sapiens, UniProt O60894+Q16602)
T1 construct: endogenous in cells; host or cells: SK-N-MC cells (membrane homogenate)
Experiment: CGRP Binding Assay ([125I]-CGRP radioligand displacement, SK-N-MC membrane homogenate)
Conditions: [125I]-CGRP displacement, SK-N-MC homogenate, room temperature 2 h; read-out: Human CGRP1 Receptor IC50

T1 sequence (Q16602 23-461): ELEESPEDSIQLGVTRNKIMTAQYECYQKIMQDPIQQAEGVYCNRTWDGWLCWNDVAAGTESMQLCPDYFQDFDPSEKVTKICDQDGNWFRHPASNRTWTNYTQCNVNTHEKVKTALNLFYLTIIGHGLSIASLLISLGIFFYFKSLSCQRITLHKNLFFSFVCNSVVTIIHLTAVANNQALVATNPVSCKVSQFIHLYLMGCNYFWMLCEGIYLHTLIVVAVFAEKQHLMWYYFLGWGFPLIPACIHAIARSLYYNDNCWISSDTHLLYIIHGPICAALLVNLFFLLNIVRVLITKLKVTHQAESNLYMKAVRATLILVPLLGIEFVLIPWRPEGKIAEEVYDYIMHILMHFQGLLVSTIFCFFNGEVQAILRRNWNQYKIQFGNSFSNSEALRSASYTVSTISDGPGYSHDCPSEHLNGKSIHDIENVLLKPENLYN
T1 sequence (O60894 27-148): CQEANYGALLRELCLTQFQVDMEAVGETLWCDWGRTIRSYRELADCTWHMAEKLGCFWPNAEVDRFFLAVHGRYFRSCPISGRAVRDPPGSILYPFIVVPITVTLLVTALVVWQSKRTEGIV

Row | Compound | IC50 [nM]
1 | CCOC(=O)c1noc([C@@H](Cc2cc(C)c3[nH]ncc3c2)OC(=O)N2CCC(c3cc4ccccc4[nH]c3=O)CC2)n1 [Example 103, (R)-1-(3-(Ethoxycarbonyl)-1,2,4-oxadiazol-5-yl)-2-(7-methyl-1H-indazol-5-yl)ethyl 4-(2-oxo-1,2-dihydroquinolin-3-yl)piperidine-1-carboxylate] | 10 to 100
2 | (±)-4-(2-Oxo-1,4-dihydro-2H-quinazolin-3-yl)-piperidine-1-carboxylic acid [2-(7-ethyl-3-methyl-1H-indazol-5-yl)-1-pyridin-4-yl methyl-1H-tetrazol-5-yl)-ethyl]-amide [Example 19] | < 10
